The values below come from US20230083973A1, “SUBSTITUTED CYCLOPROPYL-2,2'-BIP[…], ANALOGUES THEREOF, AND METHODS USING SAME” (priority 2019, published 2023).

As a reminder, the EC50 is the concentration at which the effect is half-maximal.

For one experiment, the system named is HBsAg. The experiment is described as follows: HBsAg assay: inhibition of HBsAg in HepG2.2.15 cells (chemiluminescence immunoassay of supernatant). Format: cell-based, hepatitis B virus. The conditions noted are these: Hepatitis B virus, HepG2.2.15, 144 h, read-out: sAg EC50, HepG2.2.15 cells; HBsAg in supernatant at day 6 after exposure to compound; 0.5% DMSO. The gist of the method:
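HepG2.2.15 cells treated with serially diluted compounds (0.5% DMSO), medium and compound refreshed after 2–3 days, supernatant harvested at day 6. Secreted HBsAg measured by chemiluminescence immunoassay; EC50 from dose-response curves, with parallel CellTiter-Glo viability at 5,000 cells/well.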
With `COc1ccc(C2CC2c2cnc(-c3ncccn3)nc2)cc1OC` (single isomer, unassigned) [Example 31, trans-5-(2-(3,4-Dimethoxyphenyl)cyclopropyl)-2,2′-bipyrimidine], the EC50 came out at 330 nM.
For `CCc1cc(F)c(OC)cc1C1CC1c1cnc(-c2ncccn2)nc1` (single isomer, unassigned) [Example 35, trans-5-(2-(2-Ethyl-4-fluoro-5-methoxyphenyl)cyclopropyl)-2,2′-bipyrimidine], the EC50 came out at 550 nM.

Still in this experiment, the particulars now being: read-out: sAg EC50; HepG2.2.15 cells; HBsAg in supernatant at day 6 after exposure to compound; 0.5% DMSO.
In the case of `Fc1ccc(C2CC2c2cnc(-c3ncccn3)nc2)cc1OCC(F)F` (single isomer, unassigned) [Example 27, trans-5-(2-(3-(2,2-Difluoroethoxy)-4-fluorophenyl)cyclopropyl)-2,2′-bipyrimidine], the EC50 is 630 nM.
Take `Fc1ccc(C2CC2c2cnc(-c3ncccn3)nc2)cc1OCC(F)F` (single isomer, unassigned) [Example 28, trans-5-(2-(3-(2,2-Difluoroethoxy)-4-fluorophenyl)cyclopropyl)-2,2′-bipyrimidine]: the EC50 was 56 nM.
For the molecule `Fc1ccc(C2CC2c2cnc(-c3ncccn3)nc2)cc1Cl` (single isomer, unassigned) [Example 29, trans-5-(2-(3-Chloro-4-fluorophenyl)cyclopropyl)-2,2′-bipyrimidine], the EC50 came to 780 nM.
Regarding `Fc1ccc(C2CC2c2cnc(-c3ncccn3)nc2)cc1Cl` (single isomer, unassigned) [Example 30, trans-5-(2-(3-Chloro-4-fluorophenyl)cyclopropyl)-2,2′-bipyrimidine], the EC50 turned out to be 80 nM.
In the case of `COc1ccc(C2CC2c2cnc(-c3ncccn3)nc2)cc1OC` (single isomer, unassigned) [Example 32, trans-5-(2-(3,4-Dimethoxyphenyl)cyclopropyl)-2,2′-bipyrimidine], the EC50 was 480 nM.
For the molecule `COc1cc(C2CC2c2cnc(-c3ncccn3)nc2)ccc1Cl` (single isomer, unassigned) [Example 33, trans-5-(2-(4-Chloro-3-methoxyphenyl)cyclopropyl)-2,2′-bipyrimidine], the EC50 is 31 nM.
Consider `COc1cc(C2CC2c2cnc(-c3ncccn3)nc2)ccc1Cl` (single isomer, unassigned) [Example 34, trans-5-(2-(4-Chloro-3-methoxyphenyl)cyclopropyl)-2,2′-bipyrimidine], for which the EC50 came out at 150 nM.
`CCc1cc(F)c(OC)cc1C1CC1c1cnc(-c2ncccn2)nc1` (single isomer, unassigned) [Example 36, trans-5-(2-(2-Ethyl-4-fluoro-5-methoxyphenyl)cyclopropyl)-2,2′-bipyrimidine]: the EC50 was found to be 720 nM.
The same measure, in the same setting: to `CCCc1cc(F)c(OC)cc1C1CC1c1cnc(-c2ncccn2)nc1` (single isomer, unassigned) [Example 37, trans-5-(2-(4-Fluoro-5-methoxy-2-propylphenyl)cyclopropyl)-2,2′-bipyrimidine] belongs 2000 nM; to `CCCc1cc(F)c(OC)cc1C1CC1c1cnc(-c2ncccn2)nc1` (single isomer, unassigned) [Example 38, trans-5-(2-(4-Fluoro-5-methoxy-2-propylphenyl)cyclopropyl)-2,2′-bipyrimidine], 150 nM; to `Fc1ccc(C2CC2c2cnc(-c3ncccn3)nc2)cc1OC(F)(F)F` (single isomer, unassigned) [Example 39, trans-5-(2-(4-Fluoro-3-(trifluoromethoxy)phenyl)cyclopropyl)-2,2′-bipyrimidine], 2000 nM.
On to `Fc1ccc(C2CC2c2cnc(-c3ncccn3)nc2)cc1OC(F)(F)F` (single isomer, unassigned) [Example 40, trans-5-(2-(4-Fluoro-3-(trifluoromethoxy)phenyl)cyclopropyl)-2,2′-bipyrimidine], for which the EC50 stood at 110 nM.
With `CS(=O)(=O)N1CCN(c2cc(C3CC3c3cnc(-c4ncccn4)nc3)ccc2F)CC1` (single isomer, unassigned) [Example 41, trans-5-(2-(4-Fluoro-3-(4-(methylsulfonyl)piperazin-1-yl)phenyl)cyclopropyl)-2,2′-bipyrimidine], the EC50 amounted to 4000 nM.
Take `CS(=O)(=O)N1CCN(c2cc(C3CC3c3cnc(-c4ncccn4)nc3)ccc2F)CC1` (single isomer, unassigned) [Example 42, trans-5-(2-(4-Fluoro-3-(4-(methylsulfonyl)piperazin-1-yl)phenyl)cyclopropyl)-2,2′-bipyrimidine]: the EC50 amounted to 220 nM.
In the case of `Fc1ccc(C2CC2c2cnc(-c3ncccn3)nc2)cc1N1CCC(F)(F)C1` (single isomer, unassigned) [Example 43, trans-5-(2-(3-(3,3-Difluoropyrrolidin-1-yl)-4-fluorophenyl)cyclopropyl)-2,2′-bipyrimidine], the EC50 turned out to be 250 nM.
The same measure, in the same setting: to `Fc1ccc(C2CC2c2cnc(-c3ncccn3)nc2)cc1N1CCC(F)(F)C1` (single isomer, unassigned) [Example 44, trans-5-(2-(3-(3,3-Difluoropyrrolidin-1-yl)-4-fluorophenyl)cyclopropyl)-2,2′-bipyrimidine] belongs 110 nM; to `COc1cc(C2CC2c2cnc(-c3ncccn3)nc2)cc(F)c1Cl` (single isomer, unassigned) [Example 45, trans-5-(2-(4-Chloro-3-fluoro-5-methoxyphenyl)cyclopropyl)-2,2′-bipyrimidine], 270 nM.
For the molecule `COc1cc(C2CC2c2cnc(-c3ncccn3)nc2)cc(F)c1Cl` (single isomer, unassigned) [Example 46, trans-5-(2-(4-Chloro-3-fluoro-5-methoxyphenyl)cyclopropyl)-2,2′-bipyrimidine], the EC50 amounted to 35 nM.
Consider `COC1CN(c2cc(C3CC3c3cnc(-c4ncccn4)nc3)ccc2F)C1` (single isomer, unassigned) [Example 47, trans-5-(2-(4-Fluoro-3-(3-methoxyazetidin-1-yl)phenyl)cyclopropyl)-2,2′-bipyrimidine], for which the EC50 stood at 370 nM.
For the molecule `COC1CN(c2cc(C3CC3c3cnc(-c4ncccn4)nc3)ccc2F)C1` (single isomer, unassigned) [Example 48, trans-5-(2-(4-Fluoro-3-(3-methoxyazetidin-1-yl)phenyl)cyclopropyl)-2,2′-bipyrimidine], the EC50 stood at 32 nM.
In the case of `Cc1cc(C2CC2c2cnc(-c3ncccn3)nc2)cc(OCC2CC2)c1Cl` (single isomer, unassigned) [Example 49, trans-5-((2-(4-Chloro-3-(cyclopropylmethoxy)-5-methylphenyl)cyclopropyl)-2,2′-bipyrimidine], the EC50 was 170 nM.
In the case of `Cc1cc(C2CC2c2cnc(-c3ncccn3)nc2)cc(OCC2CC2)c1Cl` (single isomer, unassigned) [Example 50, trans-5-((2-(4-Chloro-3-(cyclopropylmethoxy)-5-methylphenyl)cyclopropyl)-2,2′-bipyrimidine], the EC50 amounted to 2000 nM.
Take `COc1cc(C2CC2c2cnc(-c3ncccn3)nc2)c(C)cc1Cl` (single isomer, unassigned) [Example 51, trans-5-(2-(4-Chloro-5-methoxy-2-methylphenyl)cyclopropyl)-2,2′-bipyrimidine]: the EC50 was found to be 290 nM.
Still for that read-out and setting: with `COc1cc(C2CC2c2cnc(-c3ncccn3)nc2)c(C)cc1Cl` (single isomer, unassigned) [Example 52, trans-5-(2-(4-Chloro-5-methoxy-2-methylphenyl)cyclopropyl)-2,2′-bipyrimidine] the figure was 1000 nM; with `OC1CN(c2cc(C3CC3c3cnc(-c4ncccn4)nc3)ccc2F)C1` (single isomer, unassigned) [Example 53, trans-1-(5-(2-([2,2′-Bipyrimidin]-5-yl)cyclopropyl)-2-fluorophenyl)azetidin-3-ol], 500 nM; with `OC1CN(c2cc(C3CC3c3cnc(-c4ncccn4)nc3)ccc2F)C1` (single isomer, unassigned) [Example 54, trans-1-(5-(2-([2,2′-Bipyrimidin]-5-yl)cyclopropyl)-2-fluorophenyl)azetidin-3-ol], 220 nM.
Consider `COc1c(Cl)ccc(C2CC2c2cnc(-c3ncccn3)nc2)c1F` (single isomer, unassigned) [Example 55, trans-5-(2-(4-Chloro-2-fluoro-3-methoxyphenyl)cyclopropyl)-2,2′-bipyrimidine], for which the EC50 stood at 1000 nM.
Turning to `COc1c(Cl)ccc(C2CC2c2cnc(-c3ncccn3)nc2)c1F` (single isomer, unassigned) [Example 56, trans-5-(2-(4-Chloro-2-fluoro-3-methoxyphenyl)cyclopropyl)-2,2′-bipyrimidine], the EC50 amounted to 470 nM.
For `COc1cc(C2CC2c2cnc(-c3ncccn3)nc2)cc(C)c1Cl` (single isomer, unassigned) [Example 57, trans-5-(2-(4-Chloro-3-methoxy-5-methylphenyl)cyclopropyl)-2,2′-bipyrimidine], the EC50 worked out at 63 nM.
Consider `COc1cc(C2CC2c2cnc(-c3ncccn3)nc2)cc(C)c1Cl` (single isomer, unassigned) [Example 58, trans-5-(2-(4-Chloro-3-methoxy-5-methylphenyl)cyclopropyl)-2,2′-bipyrimidine], for which the EC50 was determined as 290 nM.
In the case of `COc1cc(C2CC2c2cnc(-c3ncccn3)nc2)cc(Cl)c1Cl` (single isomer, unassigned) [Example 59, trans-5-(2-(3,4-Dichloro-5-methoxyphenyl)cyclopropyl)-2,2′-bipyrimidine], the EC50 amounted to 32 nM.
The same measure, in the same setting: to `COc1cc(C2CC2c2cnc(-c3ncccn3)nc2)cc(Cl)c1Cl` (single isomer, unassigned) [Example 60, trans-5-(2-(3,4-Dichloro-5-methoxyphenyl)cyclopropyl)-2,2′-bipyrimidine] belongs 250 nM.
